Laboratory results reported in ChEMBL document CHEMBL1201862, “PubChem BioAssay data set” (2004).
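Growth conditions: 96-well plates. Treatment: test compound, 48 hours, 5 concentrations. Analysis: linear interpolation between bracketing concentrations; unreached endpoints set to highest concentration. GI50 = concentration required for 50% inhibition of growth.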 Activity calls are given as the source filed them. Rule as the data show it: active = GI50 up to about 1.1 µM and inactive = higher.

What was measured:
Assay in all cases: NCI-60 cell line screen, 48 h
[1] = tested on: RPMI-8226
[2] = tested on: SF-539
[3] = tested on: U-251
[4] = tested on: K562
[5] = tested on: A498
[6] = tested on: LOX IMVI
[7] = tested on: SR
[8] = tested on: SW-620
[9] = tested on: NCI-H23
[10] = tested on: PC-3
[11] = tested on: MDA-MB-231
[12] = tested on: MDA-N
[13] = tested on: BT-549
[14] = tested on: SK-MEL-28
[15] = tested on: OVCAR-8
[16] = tested on: Hs-578T
[17] = tested on: M14
[18] = tested on: IGROV-1
[19] = tested on: TK-10
[20] = tested on: A549

| SMILES | GI50 [1] | GI50 [2] | GI50 [3] | GI50 [4] | GI50 [5] | GI50 [6] | GI50 [7] | GI50 [8] | GI50 [9] | GI50 [10] | GI50 [11] | GI50 [12] | GI50 [13] | GI50 [14] | GI50 [15] | GI50 [16] | GI50 [17] | GI50 [18] | GI50 [19] | GI50 [20] |
| --- | --- | --- | --- | --- | --- | --- | --- | --- | --- | --- | --- | --- | --- | --- | --- | --- | --- | --- | --- | --- |
| CC1=NN(c2cccc(S(=O)(=O)O)c2)C2(C1)SCC(=O)N2c1nc2ccccc2s1 (stereo not given) | > 100 µM (inactive) | 17.6 µM (inactive) | > 100 µM (inactive) | > 100 µM (inactive) | > 100 µM (inactive) | 88.9 µM (inactive) | 35.7 µM (inactive) | 9.1 µM (inactive) | > 100 µM (inactive) | > 100 µM (inactive) | > 100 µM (inactive) | > 100 µM (inactive) | > 100 µM (inactive) | > 100 µM (inactive) | > 100 µM (inactive) | > 100 µM (inactive) | > 100 µM (inactive) | > 100 µM (inactive) | > 100 µM (inactive) | > 100 µM (inactive) |
| CC12CCCCC1=C(F)C(F)(F)S2 (stereo not given) | 7.46 µM (inactive) | > 70.6 µM (inactive) | 98.6 µM (inactive) | 17.5 µM (inactive) | > 100 µM (inactive) | 31.8 µM (inactive) | 15 µM (inactive) | 24.5 µM (inactive) | 52.1 µM (inactive) | 40.7 µM (inactive) | 83.9 µM (inactive) | 21.9 µM (inactive) | 19.1 µM (inactive) | 28 µM (inactive) | 35.8 µM (inactive) | > 21.5 µM (inactive) | 37.6 µM (inactive) | > 71.9 µM (inactive) | 39.2 µM (inactive) | > 79.3 µM (inactive) |
| COC(=O)C(Cc1ccccc1)NS(=O)(=O)c1ccc(-c2c3nc(c(-c4ccc(S(=O)(=O)NC(Cc5ccccc5)C(=O)OC)cc4)c4ccc([nH]4)c(-c4ccc(S(=O)(=O)NC(Cc5ccccc5)C(=O)OC)cc4)c4nc(c(-c5ccc(S(=O)(=O)NC(Cc6ccccc6)C(=O)OC)cc5)c5ccc2[nH]5)C=C4)C=C3)cc1 (stereo not given) | > 100 µM (inactive) | > 100 µM (inactive) | 28.1 µM (inactive) | > 100 µM (inactive) | > 100 µM (inactive) | > 100 µM (inactive) | > 100 µM (inactive) | > 100 µM (inactive) | > 100 µM (inactive) | > 100 µM (inactive) | > 100 µM (inactive) | > 100 µM (inactive) | > 100 µM (inactive) | > 100 µM (inactive) | > 100 µM (inactive) | 17.1 µM (inactive) | > 100 µM (inactive) | > 100 µM (inactive) | > 100 µM (inactive) | > 100 µM (inactive) |
| O=C1NC(=S)NC(=O)C1=C(O)Nc1ccccc1 | 27.4 µM (inactive) | 23.8 µM (inactive) | 27.5 µM (inactive) | 27.7 µM (inactive) | 28.6 µM (inactive) | 23.3 µM (inactive) | 12.8 µM (inactive) | 29.2 µM (inactive) | 26.3 µM (inactive) | 15 µM (inactive) | 31.8 µM (inactive) | 30 µM (inactive) | 12.1 µM (inactive) | 47.9 µM (inactive) | 27.8 µM (inactive) | 20.2 µM (inactive) | 36.2 µM (inactive) | 32 µM (inactive) | 53.6 µM (inactive) | 24.1 µM (inactive) |
| C[C@H](CCC(=O)O)[C@H]1CC[C@H]2[C@@H]3C(=O)C[C@@H]4C[C@H](O)CC[C@]4(C)[C@H]3C[C@H](O)[C@]12C | > 100 µM (inactive) | > 100 µM (inactive) | > 100 µM (inactive) | > 100 µM (inactive) | > 100 µM (inactive) | > 100 µM (inactive) | > 100 µM (inactive) | > 100 µM (inactive) | > 100 µM (inactive) | > 100 µM (inactive) | > 100 µM (inactive) | > 100 µM (inactive) | > 100 µM (inactive) | > 100 µM (inactive) | > 100 µM (inactive) | < 0.01 µM (active) | > 100 µM (inactive) | > 100 µM (inactive) | > 100 µM (inactive) | > 100 µM (inactive) |
| O=C1c2c(F)c(F)c(F)c(F)c2SC2=Nc3cccc4cccc(c34)N12 | 2.62 µM (inactive) | 6.18 µM (inactive) | 3.78 µM (inactive) | 2.02 µM (inactive) | 18.5 µM (inactive) | 2.77 µM (inactive) | 2.13 µM (inactive) | 3.29 µM (inactive) | 3.88 µM (inactive) | 5.68 µM (inactive) | 3.24 µM (inactive) | 5.05 µM (inactive) | 10.9 µM (inactive) | 4.27 µM (inactive) | 5.41 µM (inactive) | 2.86 µM (inactive) | 2.92 µM (inactive) | 11.4 µM (inactive) | 13.3 µM (inactive) | 18.5 µM (inactive) |
| COc1cc2c3c(c1OC)C1(C=CC(=O)C=C1)CC3NCC2 (stereo not given) | > 100 µM (inactive) | > 100 µM (inactive) | > 100 µM (inactive) | > 100 µM (inactive) | > 100 µM (inactive) | > 100 µM (inactive) | > 100 µM (inactive) | > 100 µM (inactive) | > 100 µM (inactive) | > 100 µM (inactive) | > 100 µM (inactive) | > 100 µM (inactive) | > 100 µM (inactive) | > 100 µM (inactive) | > 100 µM (inactive) | > 100 µM (inactive) | > 100 µM (inactive) | > 100 µM (inactive) | > 100 µM (inactive) | > 100 µM (inactive) |
| CN(C)CCOc1ccc2[nH]c(C(=O)N3CC(CCl)c4ccc(N)cc43)cc2c1 (stereo not given) | 0.228 µM (active) | 0.385 µM (active) | 0.0912 µM (active) | 0.0533 µM (active) | 0.208 µM (active) | 0.0601 µM (active) | < 0.0179 µM (active) | 0.121 µM (active) | 0.0562 µM (active) | 0.0459 µM (active) | 1.39 µM (inactive) | 0.143 µM (active) | 0.192 µM (active) | 0.126 µM (active) | 0.0912 µM (active) | 0.176 µM (active) | 0.145 µM (active) | 0.0395 µM (active) | 0.29 µM (active) | 0.0667 µM (active) |
| COC(=O)/C(=C\c1cn(C(C)=O)c2ccccc12)P(=O)(OC)OC | 17.1 µM (inactive) | 16 µM (inactive) | 15.8 µM (inactive) | 25.1 µM (inactive) | 17.3 µM (inactive) | 5.55 µM (inactive) | > 100 µM (inactive) | 18.5 µM (inactive) | 14.8 µM (inactive) | 16.2 µM (inactive) | 11.7 µM (inactive) | 15.1 µM (inactive) | 15.8 µM (inactive) | 24.1 µM (inactive) | 22.5 µM (inactive) | 27 µM (inactive) | 15.2 µM (inactive) | 13.3 µM (inactive) | 20.8 µM (inactive) | 16.4 µM (inactive) |
